Laboratory results from ChEMBL document CHEMBL1129485, “Bis(31/31') ([CYS(31), Trp(32), Nva(34)] NPY-(31-36)): a specific NPY Y-1 receptor antagonist” (J Med Chem, 1996).
Positions of bridges follow the written chain, without caps; N, C: chain ends. Non-standard residues stand in square brackets, D forms with d. Residues, ends and D or L forms follow the SMILES beside them. Chains are numbered I, II in the order given. Nva = CCC[C@H](N)C(=O)O

Columns and labels:
[1] = molecular target: T1, Neuropeptide Y receptor type 1 (Homo sapiens, UniProt P25929); assay: Compound was tested for the displacement of [125I]-PYY (SK-N-MC) from Neuropeptide Y receptor type 1 in the membranes prepared from cells; type: cell membranes
T1 sequence (P25929 whole entry): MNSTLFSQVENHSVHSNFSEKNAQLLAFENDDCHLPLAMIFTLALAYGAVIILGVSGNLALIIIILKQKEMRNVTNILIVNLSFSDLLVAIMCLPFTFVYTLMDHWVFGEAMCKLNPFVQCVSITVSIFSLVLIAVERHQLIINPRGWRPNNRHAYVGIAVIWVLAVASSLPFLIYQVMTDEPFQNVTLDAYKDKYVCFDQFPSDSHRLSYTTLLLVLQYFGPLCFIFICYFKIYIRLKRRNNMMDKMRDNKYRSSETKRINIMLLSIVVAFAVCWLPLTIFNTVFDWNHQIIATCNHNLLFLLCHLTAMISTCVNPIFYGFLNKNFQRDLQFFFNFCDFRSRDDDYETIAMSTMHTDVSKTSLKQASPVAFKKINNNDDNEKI

[2] = molecular target: T2, Neuropeptide Y receptor type 2 (Homo sapiens, UniProt P49146); assay: Compound was tested for the displacement of [125I]-PYY(3-36) (SK-N-BE2) from Neuropeptide Y receptor type 2 in the membranes prepared from cells; type: cell membranes
T2 sequence (P49146 whole entry): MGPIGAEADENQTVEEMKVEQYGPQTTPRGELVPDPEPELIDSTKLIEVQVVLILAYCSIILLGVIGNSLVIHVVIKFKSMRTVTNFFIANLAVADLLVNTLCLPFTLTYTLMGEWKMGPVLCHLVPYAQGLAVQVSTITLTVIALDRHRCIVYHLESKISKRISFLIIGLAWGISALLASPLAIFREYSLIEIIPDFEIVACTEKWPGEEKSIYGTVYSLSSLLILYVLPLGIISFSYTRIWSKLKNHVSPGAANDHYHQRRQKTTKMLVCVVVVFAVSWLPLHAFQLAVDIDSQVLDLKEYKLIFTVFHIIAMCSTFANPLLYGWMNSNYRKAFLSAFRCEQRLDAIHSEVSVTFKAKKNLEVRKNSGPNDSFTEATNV

| SMILES | Ki [1] | Ki [2] |
| --- | --- | --- |
| CCC[C@H](NC(=O)[C@H](CCCNC(=N)N)NC(=O)[C@H](Cc1c[nH]c2ccccc12)NC(=O)[C@H](CSSC[C@H](NC(=O)[C@H](CC(C)C)NC(=O)[C@@H](NC(=O)[C@@H](N)Cc1ccc(O)cc1)[C@@H](C)CC)C(=O)N[C@@H](Cc1c[nH]c2ccccc12)C(=O)N[C@@H](CCCNC(=N)N)C(=O)N[C@@H](CCC)C(=O)N[C@@H](CCCNC(=N)N)C(=O)N[C@@H](Cc1ccc(O)cc1)C(N)=O)NC(=O)[C@H](CC(C)C)NC(=O)[C@@H](NC(=O)[C@@H](N)Cc1ccc(O)cc1)[C@@H](C)CC)C(=O)N[C@@H](CCCNC(=N)N)C(=O)N[C@@H](Cc1ccc(O)cc1)C(N)=O (I: H-YILCWR[Nva]RY-NH2 / II: H-YILCWR[Nva]RY-NH2; disulfide I:4-II:4) | 95 nM | 988 nM |
| CCC[C@H](NC(=O)[C@H](CCCNC(=N)N)NC(=O)[C@H](Cc1c[nH]c2ccccc12)NC(=O)[C@@H](N)CSSC[C@H](N)C(=O)N[C@@H](Cc1c[nH]c2ccccc12)C(=O)N[C@@H](CCCNC(=N)N)C(=O)N[C@@H](CCC)C(=O)N[C@@H](CCCNC(=N)N)C(=O)N[C@@H](Cc1ccc(O)cc1)C(N)=O)C(=O)N[C@@H](CCCNC(=N)N)C(=O)N[C@@H](Cc1ccc(O)cc1)C(N)=O (I: H-CWR[Nva]RY-NH2 / II: H-CWR[Nva]RY-NH2; disulfide I:1-II:1) | 46 nM | > 10000 nM |
| CCC[C@H](NC(=O)[C@H](CCCN=C(N)N)NC(=O)[C@@H](Cc1c[nH]c2ccccc12)NC(=O)[C@H](CSSC[C@H](NC(=O)[C@H](CC(C)C)NC(=O)[C@H](Cc1c[nH]c2ccccc12)NC(=O)[C@@H](N)Cc1ccc(O)cc1)C(=O)N[C@H](Cc1c[nH]c2ccccc12)C(=O)N[C@@H](CCCN=C(N)N)C(=O)N[C@@H](CCC)C(=O)N[C@@H](CCCN=C(N)N)C(=O)N[C@@H](Cc1ccc(O)cc1)C(N)=O)NC(=O)[C@H](CC(C)C)NC(=O)[C@H](Cc1c[nH]c2ccccc12)NC(=O)[C@@H](N)Cc1ccc(O)cc1)C(=O)N[C@@H](CCCN=C(N)N)C(=O)N[C@@H](Cc1ccc(O)cc1)C(N)=O | 143 nM | 704 nM |
| CCC[C@H](NC(=O)[C@H](CCCN=C(N)N)NC(=O)[C@H](Cc1c[nH]c2ccccc12)NC(=O)[C@H](CSSC[C@H](NC(=O)[C@H](CC(C)C)NC(=O)[C@H](Cc1c[nH]c2ccccc12)NC(=O)[C@@H](N)Cc1ccc(O)cc1)C(=O)N[C@@H](Cc1c[nH]c2ccccc12)C(=O)N[C@@H](CCCN=C(N)N)C(=O)N[C@@H](CCC)C(=O)N[C@@H](CCCN=C(N)N)C(=O)N[C@@H](Cc1ccc(O)cc1)C(N)=O)NC(=O)[C@H](CC(C)C)NC(=O)[C@H](Cc1c[nH]c2ccccc12)NC(=O)[C@@H](N)Cc1ccc(O)cc1)C(=O)N[C@@H](CCCN=C(N)N)C(=O)N[C@@H](Cc1ccc(O)cc1)C(N)=O | 93 nM | 621 nM |
| CCC[C@H](NC(=O)[C@H](CCCN=C(N)N)NC(=O)[C@H](Cc1c[nH]c2ccccc12)NC(=O)[C@H](CSSC[C@H](NC(=O)[C@H](CC(C)C)NC(=O)[C@H](CC(N)=O)NC(=O)[C@@H](NC(=O)[C@@H](N)Cc1ccc(O)cc1)[C@@H](C)CC)C(=O)N[C@@H](Cc1c[nH]c2ccccc12)C(=O)N[C@@H](CCCN=C(N)N)C(=O)N[C@@H](CCC)C(=O)N[C@@H](CCCN=C(N)N)C(=O)N[C@@H](Cc1ccc(O)cc1)C(N)=O)NC(=O)[C@H](CC(C)C)NC(=O)[C@H](CC(N)=O)NC(=O)[C@@H](NC(=O)[C@@H](N)Cc1ccc(O)cc1)[C@@H](C)CC)C(=O)N[C@@H](CCCN=C(N)N)C(=O)N[C@@H](Cc1ccc(O)cc1)C(N)=O (I: H-YINLCWR[Nva]RY-NH2 / II: H-YINLCWR[Nva]RY-NH2; disulfide I:5-II:5) | 44 nM | 3410 nM |
| CCC[C@H](NC(=O)[C@H](CCCN=C(N)N)NC(=O)[C@@H](NC(=O)[C@H](CSSC[C@H](NC(=O)[C@H](CC(C)C)NC(=O)[C@@H](NC(=O)[C@@H](N)Cc1ccc(O)cc1)[C@@H](C)CC)C(=O)N[C@H](C(=O)N[C@@H](CCCN=C(N)N)C(=O)N[C@@H](CCC)C(=O)N[C@@H](CCCN=C(N)N)C(=O)N[C@@H](Cc1ccc(O)cc1)C(N)=O)[C@@H](C)O)NC(=O)[C@H](CC(C)C)NC(=O)[C@@H](NC(=O)[C@@H](N)Cc1ccc(O)cc1)[C@@H](C)CC)[C@@H](C)O)C(=O)N[C@@H](CCCN=C(N)N)C(=O)N[C@@H](Cc1ccc(O)cc1)C(N)=O (I: H-YILCTR[Nva]RY-NH2 / II: H-YILCTR[Nva]RY-NH2; disulfide I:4-II:4) | 49 nM | 3980 nM |
| CCC[C@H](NC(=O)[C@H](CCCN=C(N)N)NC(=O)[C@@H](NC(=O)[C@H](CSSC[C@H](NC(=O)[C@H](CC(C)C)NC(=O)[C@H](CC(N)=O)NC(=O)[C@@H](NC(=O)[C@@H](N)Cc1ccc(O)cc1)[C@@H](C)CC)C(=O)N[C@H](C(=O)N[C@@H](CCCN=C(N)N)C(=O)N[C@@H](CCC)C(=O)N[C@@H](CCCN=C(N)N)C(=O)N[C@@H](Cc1ccc(O)cc1)C(N)=O)[C@@H](C)O)NC(=O)[C@H](CC(C)C)NC(=O)[C@H](CC(N)=O)NC(=O)[C@@H](NC(=O)[C@@H](N)Cc1ccc(O)cc1)[C@@H](C)CC)[C@@H](C)O)C(=O)N[C@@H](CCCN=C(N)N)C(=O)N[C@@H](Cc1ccc(O)cc1)C(N)=O (I: H-YINLCTR[Nva]RY-NH2 / II: H-YINLCTR[Nva]RY-NH2; disulfide I:5-II:5) | 36 nM | 2080 nM |
